Laboratory results reported in patent publication US20090311695A1, “Method” (priority 2008, published 2009).
Entries after “also recorded” stand apart in the source; their conditions may differ. Like-named read-outs stand apart in the source and are kept apart here.

Tests used:
[1] = tested on: translation readthrough of in-frame stop signal; experiment: enzyme-based dual-reporter (β-gal-luciferase) readthrough assay, constructs H8 and H8A; assay type: cell-based
Source text: (A) An outline of the single cell-based translation readthrough assay. The principle of the reporter system is similar to that mentioned in FIG. 2 with the exception that it contains a translation termination signal in the exon 12. In the event of translation termination at the internal PTC, a DsRed-Express protein will be generated whilst readthrough will produce a fusion dual-fluorescence protein (DsRed Express and GFP). Thus the ratio of two fluorescence intensities determines the efficiency of readthrough. […] (C) Cell expressing fluorescence proteins were analyzed with FACS. Cell transfected with pTN139 generated the highest population of dual-fluorescence cells (FIG. 5Civ), whilst pTN142 produced no or few dual-fluorescence cells. […] GFP (FIG. 5Cii) and DsRed-Express (FIG. 5Ciii) proteins expressing cells were used as fluorescence positive control, whilst untransfected cells (FIG. 5Ci) were used as negative control. […] In the event of readthrough, a β-gal-luciferase fusion protein will be produced. The ratio of these two proteins was used as the efficiency of readthrough event. […]
To further validate the efficiency determined by fluorescence assays, we employed an enzyme-based reporter assay. […] In the event of translation termination, β-gal protein is generated, whilst readthrough produces a β-gal and luciferase fusion protein. […]

[2] = tested on: translation readthrough of PTC in exon 12 of BMPR2; assay type: cell-based; conditions: for population of dual-fluorescence cells (FACS): 293 cells transfected with pTN142; for ratio of DsRed-Express and GFP production (efficiency of readthrough), plate readers: fluorescence monochrome and filter plate readers, data not shown
Source text: (A) An outline of the single cell-based translation readthrough assay. The principle of the reporter system is similar to that mentioned in FIG. 2 with the exception that it contains a translation termination signal in the exon 12. In the event of translation termination at the internal PTC, a DsRed-Express protein will be generated whilst readthrough will produce a fusion dual-fluorescence protein (DsRed Express and GFP). Thus the ratio of two fluorescence intensities determines the efficiency of readthrough. […] (C) Cell expressing fluorescence proteins were analyzed with FACS. Cell transfected with pTN139 generated the highest population of dual-fluorescence cells (FIG. 5Civ), whilst pTN142 produced no or few dual-fluorescence cells. […] GFP (FIG. 5Cii) and DsRed-Express (FIG. 5Ciii) proteins expressing cells were used as fluorescence positive control, whilst untransfected cells (FIG. 5Ci) were used as negative control. (FIG. 5D) The outline of the enzymatic reporter was published elsewhere (Kollmus et al., 1996, Nasim et al., 2000). In brief, translation termination in the internal stop signal generates β-gal protein. In the event of readthrough, a β-gal-luciferase fusion protein will be produced. The ratio of these two proteins was used as the efficiency of readthrough event. For this purpose, two independent constructs were used in our experiment. Construct H8 (pBPLUGA; Kollmus et al., 1996) contains a 17 bp DNA fragment containing an in-frame stop signal. H8A construct (Nasim et al., 2000) is similar to H8 with the exception that it contains a 91 bp DNA fragment.
Single-cell based dual-fluorescence splicing assay constructs were generated by replacing exon 9 of plasmid pTN136 with exon 12 of BMPR2 gene using PCR mutagenesis (14). The resultant splicing unit was cloned into Xho I and Bam HI sites of DsRed Express-GFP vector (Siskoglu and Nasim, unpublished data) and designated as pTN139. Further plasmids pTN140, pTN141, pTN142 and pTN143 bearing mutations in exon 12 at position c.2292insA, c.2386delG, c.2620G>T and c.2695C>T, respectively were generated. A double intron splicing unit was constructed by fusing an additional splicing unit of HC9 (15) at the 3′end of the Ad-Exon 12 unit of pTN136. The splicing unit of HC9 comprises the last 17 nucleotides of the non-muscle exon (NM) of human TPM3 gene together with the following 80-nucleotide intron, which was joined to a fragment of human dystrophin gene containing the last 260 nucleotides of intron 11 followed by the 100 nucleotides of exon 12. The double-intron splicing unit was cloned into EcoRI and KpnI sites of DsRed-Express-GFP vector and designated as pTN153. Plasmid pTN155 is a derivative of pTN153 and harbours a mutation in exon 12 at position c.2386delG.
Gene Transfer, cell culture, enzymatic assay, fluorescence microscopy and fluorescence activated cell sorting (FACS) were carried as described elsewhere (11), (15), (17). Amount of plasmid DNA transfected into HEK293 cell line varied from (from 30 ng to 1 μg) assay to assay.
In addition to PAH, there are also more than 1800 genetic disorders caused by nonsense mutation. Two approaches are currently available to overcome nonsense-associated genetic diseases. […] The aim of other approach is to suppress pre-mature termination; in other words to promote translation readthrough. As the dual-fluorescence assay was successfully utilized to characterize the PTC, we next wished to investigate whether the system can be used to identify factors that promote translation readthrough. To achieve this, we introduced a nonsense mutation into the exon 12 of the BMPR2 gene in such a way that it incorporates a PTC (FIG. 5A). In the event of readthrough, a fusion dual-fluorescence protein (DsRed Express and GFP) will be produced, whilst translation termination generates only DsRed-Express protein. Thus the ratio of two fluorescence intensities determines the efficiency of readthrough. […]

[3] = tested on: nonsense codon read-through; conditions: literature values; cited from earlier work
[4] = tested on: nonsense mediated RNA decay; experiment: β-galactosidase reporter based NMD assay (gal-luc ratio) with PTC bearing double intron splicing unit; assay type: cell-based; conditions: reporter with c.2386delG or c.2292insA PTC, after treatment with translation/NMD inhibitor
Source text: (A) The test system for determining nonsense mediated RNA decay in mammalian cells based on the reporter gene encoding β-galactosidase, which was fused in-frame with the PTC (c.2386delG, c.2292insA) bearing recombinant double intron splicing unit (FIG. 4A). Plasmids bearing c.2292insA (pTN147) and c.2386delG (pTN148) mutations were transfected into HE 293 cells and grown in the presence or absence of NMD inhibitors including puromycin and cycloheximide. The treatments increased the gal-luc ratio of the reporter constructs between 5 and 20 fold (FIG. 4B) compared with untreated control. Compared with cells transfected with the reporter alone, the gal-luc ratio increased between 3 and 6 fold when hUpf1 RNA was knock down by RNAi (FIG. 4C).
Constructs for determining NMD were generated by fusing the double-intron splicing unit of pTN155 at the end of β-galactosidase reporter gene. The double-intron splicing intron was cloned in two steps into pBPLUGA (16). First the splicing unit of HC9 as described above was PCR amplified and cloned into KpnI and BamHI sites of pBPLUGA. The splicing unit of pTN136 was then cloned into SalI/XhoI and BamHI sites of the newly constructed plasmid and designated as pTN148. […]
Gene Transfer, cell culture, enzymatic assay, fluorescence microscopy and fluorescence activated cell sorting (FACS) were carried as described elsewhere (11), (15), (17). […]

[5] = tested on: translation readthrough of in-frame PTC; experiment: swapped GFP-DsRedExpress dual-fluorescence readthrough assay, plate reader; assay type: cell-based; conditions: HEK293 cells, medium with 0.1% fetal bovine serum, 3-5 days, BMG Labtech plate reader
Source text: An outline of the dual-fluorescence reporter. The underlying principle of the reporter is similar to that mentioned above with the exception that the DsRed-express gene is located downstream of the GFP reporter (FIG. 7A). Following transfection the reporter harbouring an in-frame PTC produced only GFP protein (FIG. 7B). The reporter produced both GFP and DsRedExpress proteins following the exchange of the PTC to a sense codon.
A step-by-step outline of the translation readthrough assay (FIG. 8A).
A potential complication of the fluorescence approach was that of an autofluorescence which might interfere with the GFP fluorescence. To address this potential limitation, another set of vector was constructed. In this set of vectors the GFP and DsRed-Express reporters were swapped in such that the GFP is expressed regardless of translation readthrough, whilst the readthrough activates the expression of DsRed-Express protein (FIG. 7A). […] The reporter produced both GFP and DsRed-Express dual-fluorescences once the PTC codon was changed to a sense codon.
We next wished to determine the ratio of DsRed-Express and GFP production, which represents the efficiency of readthrough (FIG. 8A). […] The growth medium was discarded, cells were washed with PBS and the fluorescence intensities were determined using a fluorescence (BMG Labtech) plate reader.

| Compound | ratio of gal-luc activity (readthrough efficiency) [1] | population of dual-fluorescence cells (FACS) [2] | ratio of DsRed-Express and GFP production (efficiency of readthrough), plate readers [2] | increase in the reporter protein [4] | other results |
| --- | --- | --- | --- | --- | --- |
| CN[C@@H]1[C@@H](O)[C@@H](O[C@@H]2[C@@H](O)[C@H](O[C@H]3O[C@H]([C@@H](C)O)[C@@H](O)[C@H](O)[C@H]3N)[C@@H](N)C[C@H]2N)OC[C@]1(C)O [G418 sulphate] | promoted readthrough efficiency; also recorded: markedly increased | markedly increased | promoted translation readthrough | – | population of dual-fluorescence cells (FACS) ([2]; listed as G418): significantly high population of dual-fluorescence cells; dual-fluorescence of cells ([2]; 293 cells, PTC construct, 5 days after treatment): generated dual-fluorescence |
| O=C(O)c1cccc(-c2noc(-c3ccccc3F)n2)c1 [PTC124] | – | – | – | – | read-through efficiencies [3]: 2-10% |
| C[C@@H]1C[C@@H]([C@H](O)CC2CC(=O)NC(=O)C2)C(=O)[C@@H](C)C1 [cycloheximide] | – | – | – | 5 fold | – |
| COc1ccc(C[C@H](N)C(=O)N[C@H]2[C@@H](O)[C@H](n3cnc4c(N(C)C)ncnc43)O[C@@H]2CO)cc1 [puromycin] | – | – | – | 20 fold | – |
| gentamicin | promoted readthrough efficiency | significantly high population of dual-fluorescence cells; also recorded: markedly increased | promoted translation readthrough | – | ratio of GFP and DsRedExpress fluorescence intensities (efficiency of readthrough) [5]: promoted the ratio of GFP and DsRedExpress fluorescence intensities; also recorded: promoted translation readthrough |
